According to patent US20250206789A1, “ZINC FINGER DEGRON SEQUENCES” (STICHTING HET NEDERLANDS KANKER INSTITUUT-ANTONI VAN …, priority 2022, published 2025):

What was measured:
[1] = system: multiple myeloma patients; conditions: high-dose (25 mg per day) cohort; cited from earlier work
[2] = system: Primary human T cells; test: Cytokine production and degranulation of CDK4 TCR T cells with Zap70-PD1-degron CRASH-IT switch co-cultured with NKIRTIL006 melanoma cells, thalidomide titration; format: cell-based; conditions: as compared to single hybrid, dual zinc finger prior art degron; IFNγ, IL2, TNFα, LAMP-1
From the text: FIG. 1: Sensitivity of zinc finger degrons to IMiD can be improved by alteration of the second zinc finger sequence. (A) Schematic representation of a panel of zinc finger degrons containing the ZFP91 ZF4 beta hairpin and IKZF1 ZF2 alpha helix as a hybrid first zinc finger. […] (B-E) Primary human T cells modified with the HLA class I restricted CDK4 TCR plus a Zap70-PD1-degron CRASH-IT switch, in which the degron sequence is selected from (A), were pretreated with indicated concentrations of thalidomide. Data depict intracellular IFNγ, IL2, TNFα, and cell surface LAMP1 expression of CDK4 TCR+, EGFP high, CD8+ T cells upon co-culture with NKIRTIL006 melanoma cells in the continued presence of indicated concentrations of thalidomide. Error bars represent standard deviation (n=2). Data are representative of two independent experiments.
To our knowledge, the possibility of using a hybrid zinc finger as the second zinc finger as a means to improve the overall sensitivity of the dual zinc finger degron system was not tested before. To investigate whether the second zinc finger (IKZF1 ZF3) of the single hybrid, dual zinc finger prior art degron can be replaced with other zinc finger sequences while preserving or improving sensitivity towards IMiDs, we created a panel of CRASH-IT switches containing the zinc finger degrons shown in FIG. 1. […]

[3] = molecular target: IMID/CRBN E3 ligase complex (Homo sapiens, UniProt Q96SW2); conditions: as compared to non-hybrid ZFP91 ZF4 and IKZF1 ZF2 zinc finger degrons; cited from earlier work
[4] = system: Jurkat cells; test: SynFinger library screen: CD69 expression of CRASH-IT (Zap70-PD1-degron) transduced Jurkat cells with or without lenalidomide, enrichment index from NGS reads; format: cell-based; design: key to EI / EI index (enrichment index): enrichment index; low EI = SynFinger with desired properties
From the text: […] Jurkat cells were transduced with the SynFinger library (SynFinger containing CRASH-IT switches) at a 12.8% transduction efficiency and sorted for high EGFP expression to enrich transduced cells. For quality control of the SynFinger transduced Jurkat cells, SynFinger sequences were amplified and analyzed by NGS. 10 randomly selected SynFinger encoding DNA sequences or DNA sequences encoding the same SynFinger amino acid sequences but contain 2 nucleotide mismatches due to alternative codon usage were used to assess ability to distinguish true SynFinger sequences from noise in the NGS data. 10/10 SynFinger encoding full-nucleotide sequence match sequences were observed within NGS data whereas the 2 nucleotide mismatch containing sequences were not detected.
Jurkat cells expressing the SynFinger library were treated with 50 nM lenalidomide (a suboptimal dose that activates only ˜50% of cells expressing a CRASH-IT switch containing the parental double hybrid degron in Jurkat cells, as compared to a maximally effective 1000 nM lenalidomide dose) or were mock treated for 24 hours, and subsequently activated with anti-CD3/anti-CD28 antibodies in the presence or absence of 50 nM lenalidomide for 5 hours. Afterwards, cells were stained with IR dye (1:400) and anti-CD69-PE (1:200). Cells were sorted for live (IR dye negative), EGFP high end CD69 high (top 5%) or CD69 low (bottom 5%) expression using Aria Fusion cytometers.
Subsequently, cells were washed with PBS, and cell pellets were frozen at −20° C. until DNA extraction. Genomic DNA was isolated using the DNeasy Blood & Tissue Kit (Qiagen) according to the manufacturer's instructions, using 5×10^6 cells per column. DNA was eluted in 22 μl RNAse free water. Deep sequencing adapters and indexes were added to SynFinger encoding DNA sequences using PCR amplification. Briefly, 3 μg genomic DNA (20 μl), indexed forward and reverse primers (10 μM, 2.5 μl each) and 25 μl NEBNext® High-Fidelity 2×PCR Master Mix were added to the PCR reaction. An optimized PCR reaction (98° C. for 30 s, (98° C. for 10 s, 56° C. for 10 s, 72° C. for 5 s)×25 cycles, 72° C. for 3 min was performed using Eppendorf PCR cyclers.
Indexed PCR products were run on agarose gel, relative DNA concentrations were estimated by measuring band intensity, and 12 indexed PCR reaction products were mixed per MiSeq chip. To increase sequence diversity, samples were mixed with 25% PhiX DNA. In total, 2 MiSeq chips were used (100 bp, single read). To distinguish genuine SynFinger sequences from sequencing errors, results were filtered using a reference list of actual sequences used in SynFinger library design (100% codon match). Sequences with a very low number of reads (sum of all samples below 500 reads) were excluded from analysis.
To identify SynFingers that improve sensitivity of CRASH-IT switches towards lenalidomide while preserving or improving stringency of switch mediated control of T cell activation in the absence of lenalidomide, an enrichment index (EI) value was calculated for each sequence as described below, and SynFingers were ranked according to their EI, with a low EI indicating a SynFinger with desired properties.
CD69-HI and […] read counts from top 100 SynFingers were compared with read counts from the parental double hybrid degron using a two-sided Fisher's exact test to determine enrichment of CD69-HI cells in the presence of lenalidomide and enrichment of CD69-LO cells in the absence of lenalidomide.
To further improve the sensitivity of double hybrid degron towards IMiDs, we performed a high throughput screen using a library of ˜50,200 CRASH-IT variants that encode either single or double amino acid substitutions at the indicated positions of the first hybrid zinc finger sequence, thereby changing 18 amino acids of this zinc finger into any amino acid except cysteine (FIG. 3). […]

[5] = system: Primary human T cells; test: Cytokine production and degranulation of CDK4 TCR T cells with Zap70-Siglec11-degron CRASH-IT switch co-cultured with NKIRTIL006 melanoma cells, lenalidomide; format: cell-based; conditions: for cytokine production at very low lenalidomide concentration: 5 nM lenalidomide, as compared to double hybrid degron containing CRASH-IT switch
From the text: FIG. 5: SynFingers fusion proteins enable sensitive control of immune cell functions. A subset of SynFingers identified in the SynFinger library screen were individually validated. (A-H) Primary human T cells were modified with the HLA class I restricted CDK4 TCR plus a Zap70-Siglec11-degron CRASH-IT switch, in which the degron sequence contains the parental zinc finger degron (double hybrid degron depicted in FIGS. 1 and 3), or the parental zinc finger degron with the following mutations: G14N/K21A, G14M/N15R, L17I/K21L, E4R/Q12L, Q12R/K13T, or Q12R/K13V. As a control, primary human T cells modified with the HLA class I restricted CDK4 TCR plus vector control were used. Cells were pretreated with 5 nM lenalidomide or left untreated. Data depict intracellular IFNγ, IL2, TNFα, and cell surface LAMP1 expression of CDK4 TCR+, EGFP intermediate, CD8+ T cells upon co-culture with NKIRTIL006 melanoma cells in the continued absence (E-H) or continued presence of 5 nM lenalidomide (A-D). Dashed horizontal lines indicate cytokine production and degranulation levels of cells modified with a CRASH-IT switch containing the parental zinc finger degron. Error bars represent standard deviation (n=2). SynFinger and vector control groups were compared to the parental zinc finger group using a one-sided t test: *=p<0.05, **=p<0.01, ***=p<0.001, ****=p<0.0001, n.s.=not significant. Data are representative of two independent experiments.
FIG. 6: SynFinger containing CRASH-IT switches enable restoration of cytokine production and degranulation at lower IMID concentrations as compared to zinc finger degrons not according to the invention. (A-D) Primary human T cells modified with the HLA class I restricted CDK4 TCR plus a Zap70-Siglec11-degron CRASH-IT switch, in which the degron sequence contains prior art zinc finger degrons (single hybrid, dual zinc finger degron depicted in FIG. 1), the parental zinc finger degron (double hybrid degron depicted in FIGS. 1 and 3), or the parental zinc finger degron with the following mutations: G14N/K21A, L17I/K21L, or Q12R/K13V, were pretreated with the indicated concentrations of lenalidomide or left untreated. Data depict intracellular IFNγ, IL2, TNFα, and cell surface LAMP1 expression of CDK4 TCR+, EGFP intermediate, CD8+ T cells upon co-culture with NKIRTIL006 melanoma cells in the continued presence or absence of the indicated concentration of lenalidomide (A-D). Error bars represent standard deviation (n=3). Data are representative of two independent experiments. (E) Table depicts EC50Lenalidomide (nM) values of cells in (A-D), and EC50 fold change between the prior art zinc finger degron and a SynFinger containing the Q12R/K13V substitutions.
FIG. 7: Combination of dual substitution sets can further increase lenalidomide sensitivity of SynFinger degron. (A-D) Primary human T cells modified with the HLA class I restricted CDK4 TCR plus a Zap70-Siglec11-degron CRASH-IT switch, in which the degron sequence contains the parental zinc finger degron (double hybrid degron depicted in FIGS. 1 and 3), or the parental zinc finger degron with the following mutations: G14N/K21A, Q12R/K13V, or Q12R/K13V/G14N/K21A, were pretreated with the indicated concentrations of lenalidomide or left untreated. Data depict intracellular IFNγ, IL2, TNFα, and cell surface LAMP1 expression of CDK4 TCR+, EGFP intermediate, CD8+ T cells upon co-culture with NKIRTIL006 melanoma cells in the continued presence or absence of the indicated concentration of lenalidomide (A-D). Error bars represent standard deviation (n=3). Data are representative of two independent experiments.
To test whether the SynFingers that show an improved drug sensitivity in this Jurkat SynFinger library screen also led to an improved sensitivity to low IMID concentrations when expressed in primary human T cells, human peripheral blood T cells were modified to express the CDK4 TCR and indicated SynFinger containing CRASH-IT switch variants (FIG. 5). […]

Sequence of IMID/CRBN E3 ligase complex (Q96SW2 whole entry, one chain of several): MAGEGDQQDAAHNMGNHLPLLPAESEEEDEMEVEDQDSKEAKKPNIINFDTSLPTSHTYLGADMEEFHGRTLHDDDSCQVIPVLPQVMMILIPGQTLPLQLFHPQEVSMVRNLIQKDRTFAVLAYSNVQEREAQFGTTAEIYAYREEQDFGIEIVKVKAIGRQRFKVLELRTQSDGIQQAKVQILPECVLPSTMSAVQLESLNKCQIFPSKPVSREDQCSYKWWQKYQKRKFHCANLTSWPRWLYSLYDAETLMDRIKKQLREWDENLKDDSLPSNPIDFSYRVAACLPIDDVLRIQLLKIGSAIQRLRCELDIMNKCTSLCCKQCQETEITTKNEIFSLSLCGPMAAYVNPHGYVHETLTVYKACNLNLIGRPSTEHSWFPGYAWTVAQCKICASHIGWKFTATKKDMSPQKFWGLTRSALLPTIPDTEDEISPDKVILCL

Nc1cccc2c1CN(C1CCC(=O)NC1=O)C2=O (stereo not drawn) [lenalidomide]
toxicity in maintenance therapy [1]: dose reductions due to toxicity, in particular neutropenia, were frequent

LQCEICGFTCRQKGNLLRHIKLH [single hybrid, single zinc finger degron, ZFP91 ZF4 beta hairpin-IKZF1 ZF2 alpha helix, no second zinc finger, reference compound]
sensitivity of the CRASH-IT switch towards thalidomide [2]: reduced thalidomide sensitivity | sensitivity towards IMiD induced degradation [3]: increase sensitivity

LQCEICGFTCRQKGNLLRHIKLHSGEKPFKCHLCNYACRRKDSVVAHKAKSH [double hybrid degron, ZFP91 ZF4 beta hairpin-IKZF1 ZF2 alpha helix plus IKZF1 ZF3 beta hairpin-ZFP91 ZF5 alpha helix]
cells activated at 50 nM lenalidomide as compared to maximally effective 1000 nM lenalidomide dose ([4]; Jurkat cells expressing CRASH-IT switch, 50 nM lenalidomide): ~50% | sensitivity of the CRASH-IT switch towards thalidomide [2]: improved the sensitivity

LQCEICGFTCRRVGNLLRHIKLH [SEQ ID NO: 9]
EI ([4]; Jurkat SynFinger screen): 0.006877 | cytokine production at very low lenalidomide concentration [5]: improved cytokine production

LQCEICGFTCRRVNNLLRHIALH [Q12R/K13V/G14N/K21A, SynFinger degron with quadruple substitutions]
sensitivity of the SynFinger towards lenalidomide ([5]; as compared to SynFinger degrons with Q12R/K13V or G14N/K21A): improved the sensitivity

LQCRICGFTCRLKGNLLRHIKLH [SEQ ID NO: 1]
cytokine production at very low lenalidomide concentration [5]: improved cytokine production
